Experimental data from patent publication US4764505A, “Skin treatment composition” (Shiseido Company Ltd., priority 1985, dated 1988).
Read-outs that look alike come from different tables or passages of the source.

What was measured:
tyrosinase = system: tyrosinase
Procedure: The depigmenting effects of arbutin and hydroquinone were evaluated by using the inhibition rate of tyrosinase, i.e. polyphenol oxidase for forming melanin. This evaluation method is generally accepted in the art.
The tyrosinase inhibition rate was determined by using DOPA as a substrate as follows:
Preparation of Sample Solution
Aqueous sample solutions having a concentration of hydroquinone or arbutin of 150, 300, or 600 mM were prepared.
Preparation of Substrate Solution
A substrate solution was prepared by dissolving 5 mg of DOPA in 10 ml of distilled water.
Preparation of Enzyme Solution
An enzyme solution was prepared by dissolving 10 mg of tyrosinase (2000 I.U./mg, Sigma Chemical Co.) in 10 ml of distilled water.
A 0.5 ml amount of the substrate solution and 0.9 ml of 1/15M phosphate buffer solution were added to 0.05 ml of the sample. The mixture was incubated at 25° C. for 5 minutes. Then, 0.05 ml of the enzyme solution, which was previously incubated at 25° C. for 5 minutes, was added to the above-incubated sample mixture. The resultant mixture was allowed to react for 1.5 minutes. The absorbancy of the resultant reaction mixture was measured at 475 nm. The tyrosinase inhibition rate was calculated from the following equation: [formula] wherein T: Absorbancy in the case of the inhibitor being added;
T': Absorbancy in the case of the inhibitor being added but the substrate not being added
C: Absorbancy in the case of the inhibitor not being added
C': Absorbancy in the case of neither the inhibitor nor the substrate being added

skin [1] = conditions: guinea pig, in vivo
[2] = Stability with time in 0.1N aqueous sodium hydroxide (absorbancy at 420 nm, FIG. 1); format: physicochemical; conditions: 1 mM in 0.1N aqueous sodium hydroxide, 37° C.
Procedure: Also in FIG. 1, the changes of the absorbancy at 420 nm are shown with the lapse of time.
Hydroquinone, arbutin, or hydroquinone monocaprylate was dissolved at a concentration of 1 mM in a 0.1N aqueous sodium hydroxide solution. The changes in the color of the resultant solutions with the lapse of time at 37° C. were monitored by measuring the absorbancy at 420 nm.

skin [3] = conditions: guinea pig, in vivo; remark: listed apart in the source
[4] = Stability of neutral cream on storage at 37° C. (discoloration); format: physicochemical; conditions: for degree of discoloration: neutral cream of Example 8 (or arbutin replaced), 37° C.
Procedure: These three samples were stored at a temperature of 37° C. for 1 month, 2 months, and 3 months.

inhibition effect compared with hydroquinone (tyrosinase; tyrosinase, Table 1 conclusion in words)	Results (score, erythema and edema criteria) (skin [3])	stability with the lapse of time (in words) ([4]; Table 4 conclusion)	degree of discoloration ([4]; 1 month)	degree of discoloration ([4]; 2 months)	degree of discoloration ([4]; 3 months)	SMILES	Inhibition Rate (%) (tyrosinase; concentration 5 mM)	Inhibition Rate (%) (tyrosinase; concentration 10 mM)	Inhibition Rate (%) (tyrosinase; concentration 20 mM)	irritation (in words) (skin [1])	number of the guinea pigs causing the irritation (skin [1])	change in color of the solution with lapse of time [2]	Results (incidence, animals responding/tested) (skin [3])	contact sensitivity compared with other depigmenting agents (skin [3])	order of the contact sensitization potential (skin [3])
superior to that of hydroquinone	0	excellent	++	++	++	OC[C@H]1O[C@@H](Oc2ccc(O)cc2)[C@H](O)[C@@H](O)[C@@H]1O [Arbutin, hydroquinone-β-D-glucoside]	55.3	62.3	67.1	no irritation	0	the change of appearance was not observed	0/1	remarkably low compared with that of other depigmenting agents	Hydroquinone monocaprylate>Hydroquinone>>Arbutin
	3.4		+	+	-	CCCCCCCC(=O)Oc1ccc(O)cc1 [Hydroquinone monocaprylate, hydroquinone monocaprylate]				strong irritation		the stability was improved moderate	5/5		Hydroquinone monocaprylate>Hydroquinone>>Arbutin

SMILES	inhibition effect compared with hydroquinone (tyrosinase; tyrosinase, Table 1 conclusion in words)	Results (score, erythema and edema criteria) (skin [3])	stability with the lapse of time (in words) ([4]; Table 4 conclusion)	degree of discoloration ([4]; 1 month)	degree of discoloration ([4]; 2 months)	degree of discoloration ([4]; 3 months)	Inhibition Rate (%) (tyrosinase; concentration 5 mM)	Inhibition Rate (%) (tyrosinase; concentration 10 mM)	Inhibition Rate (%) (tyrosinase; concentration 20 mM)	irritation (in words) (skin [1])	number of the guinea pigs causing the irritation (skin [1])	change in color of the solution with lapse of time [2]	Results (incidence, animals responding/tested) (skin [3])	contact sensitivity compared with other depigmenting agents (skin [3])	order of the contact sensitization potential (skin [3])
Oc1ccc(O)cc1 [Hydroquinone, hydroquinone]		2.6		-			46.5	51.6	59.0			rapidly colored brown	5/5		Hydroquinone monocaprylate>Hydroquinone>>Arbutin
